{
  "source": "patent US20250288584A1",
  "about": "“COMBINATIONS COMPRISING POSITIVE ALLOSTERIC MODULATORS OR ORTHOSTERIC AGONISTS OF METABOTROPIC GLUTAMATERGIC RECEPTOR SUBTYPE 2 AND THEIR USE” (JANSSEN PHARMACEUTICA NV, priority 2014, published 2025)",
  "type_in_all_cases": "in vivo, mice",
  "key": {"[1]": {"experiment": "Minimal motor impairment (rotarod)"}, "[2]": {"tested_on": "6 Hz (44 mA) psychomotor seizures", "experiment": "6 Hz psychomotor seizure test, 44 mA (alone, combination with LEV, isobolographic study)", "conditions": "for ED50: i.p., 1 h TPE", "outline": "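Mice dosed s.c. or p.o. at 0.01 mL/g, alone or with LEV at fixed dose ratios proportional to ED50 values. Focal seizures induced by corneal stimulation (6 Hz, 0.2 msec pulse, 3 sec, 44 mA); animals without stun, forelimb clonus, vibrissae twitch or Straub-tail were counted as protected. ED50 values derived, with combinations analysed isobolographically.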"}, "[3]": {"experiment": "Plasma and brain levels (pK/pD analysis)", "conditions": "for concentration at 1 h: mouse, intraperitoneal", "method": "In various tests, animals were sacrificed following testing, and trunk blood and/or brain tissue (whole brains) was collected for quantification of drug levels. Immediately after testing, animals were decapitated and trunk blood was collected into a BD Vacutainer® tube containing K2EDTA and chilled on ice until centrifugation. Following centrifugation (13000-18000 rpm, 5-7 min), the plasma was removed and transferred to a labeled microcentrifuge tube and stored at −80° C. For brain tissue collection, brains were removed immediately following decapitation and flash frozen. The frozen sample was placed in a labeled centrifuge tube and stored at −80° C.\nIn addition to recording the efficacy and toxicity data for these compounds alone or in combination, both plasma and brain samples were collected from each of the groups for pharmacokinetic/pharmacokinetic analysis."}, "[4]": {"conditions": "LEV 10 mg/kg combined with Co. No. 2 3 mg/kg, 6 Hz 44 mA"}},
  "note": "Several values for one entry are separate records, joined by “and”; a condition that tells them apart may be missing. Equal entries are not always repeated. Where two headings read alike, the source gives them in different places.",
  "data": [
    {"smiles": "CC[C@@H](C(N)=O)N1CCCC1=O", "note": "[LEV, (S)-2-(2-oxopyrrolidin-1-yl) butanamide, reference compound]", "values": [
      {"measurement": "# motortox/# tested", "setting": "[1]; LEV alone 10 mg/kg i.p., 1 h, 44 mA group", "value": "0/6 and 0/8"},
      {"measurement": "# rotarod motor impairment/# tested", "setting": "[1]; LEV alone 200 mg/kg", "value": "0/8"},
      {"measurement": "# rotarod motor impairment/# tested", "setting": "[1]; LEV alone 200 mg/kg i.p., 44 mA group", "value": "0/8"},
      {"measurement": "# rotarod motor impairment/# tested", "setting": "[1]; LEV alone 350 mg/kg i.p., 44 mA group", "value": "0/8"},
      {"measurement": "# rotarod motor impairment/# tested", "setting": "[1]; LEV alone 400 mg/kg", "value": "0/9"},
      {"measurement": "# rotarod motor impairment/# tested", "setting": "[1]; LEV alone 400 mg/kg i.p., 44 mA group", "value": "0/9"},
      {"measurement": "# rotarod motor impairment/# tested", "setting": "[1]; LEV alone 800 mg/kg", "value": "0/12"},
      {"measurement": "# rotarod motor impairment/# tested", "setting": "[1]; LEV alone 800 mg/kg i.p., 44 mA group", "value": "0/12"},
      {"measurement": "# protected/# tested", "setting": "[2]; LEV (low-dose) control group 25 mg/kg", "value": "1/8"},
      {"measurement": "# protected/# tested", "setting": "[2]; LEV alone 10 mg/kg i.p., 1 h", "value": "⅙"},
      {"measurement": "responders at 200 mg/kg", "setting": "[2]; Mus musculus, 6 Hz (44 mA), LEV alone 200 mg/kg, read-out: # protected/# tested (converted)", "value": 25, "unit": "%"},
      {"measurement": "responders at 400 mg/kg", "setting": "[2]; Mus musculus, 6 Hz (44 mA), LEV alone 400 mg/kg, read-out: # protected/# tested (converted)", "value": 44.4, "unit": "%"},
      {"measurement": "responders at 800 mg/kg", "setting": "[2]; Mus musculus, 6 Hz (44 mA), LEV alone 800 mg/kg, read-out: # protected/# tested (converted)", "value": 83.3, "unit": "%"},
      {"measurement": "ED50", "setting": "[2]; Mus musculus, ip, 1 h, 6 Hz (44 mA), LEV alone, read-out: LEV ED50 (95% CI)", "value": 345, "unit": "mg/kg"},
      {"measurement": "responders at 10 mg/kg", "setting": "[2]; Mus musculus, ip, 1 h, LEV alone 10 mg/kg i.p., 1 h, read-out: # protected/# tested (converted)", "value": 16.7, "unit": "%"},
      {"measurement": "ED50", "setting": "[2]; Mus musculus, ip, 1 h, read-out: ED50 (95% CI) 44 mA, LEV alone", "value": "~345", "unit": "mg/kg"},
      {"measurement": "responders at 200 mg/kg", "setting": "[2]; Mus musculus, ip, LEV alone 200 mg/kg i.p., read-out: # protected/# tested (converted)", "value": 25, "unit": "%"},
      {"measurement": "responders at 350 mg/kg", "setting": "[2]; Mus musculus, ip, LEV alone 350 mg/kg i.p., read-out: # protected/# tested (converted)", "value": 37.5, "unit": "%"},
      {"measurement": "responders at 400 mg/kg", "setting": "[2]; Mus musculus, ip, LEV alone 400 mg/kg i.p., read-out: # protected/# tested (converted)", "value": 44.4, "unit": "%"},
      {"measurement": "responders at 800 mg/kg", "setting": "[2]; Mus musculus, ip, LEV alone 800 mg/kg i.p., read-out: # protected/# tested (converted)", "value": 83.3, "unit": "%"},
      {"measurement": "Maximum Effect (% Protection)", "setting": "[2]; compound alone", "value": 75, "unit": "%"},
      {"measurement": "Plasma (ng/ml) LEV, individual mice", "setting": "[3]; LEV 10 mg/kg combined with Co. No. 1 2.5 mg/kg, 6 Hz 44 mA", "value": "9780 ng/ml (2×) and 13700 ng/ml and 10100 ng/ml and 9350 ng/ml and 8580 ng/ml and 10900 ng/ml"},
      {"measurement": "Brain (ng/ml) LEV, individual mice", "setting": "[3]; [4]", "value": "4760 ng/mL and 6380 ng/mL and 3960 ng/mL and 6290 ng/mL and 7990 ng/mL"},
      {"measurement": "Plasma (ng/ml) LEV, individual mice", "setting": "[3]; [4]", "value": "3540 ng/mL and 3850 ng/mL and 7150 ng/mL and 3890 ng/mL and 6450 ng/mL and 8200 ng/mL"},
      {"measurement": "concentration at 1 h", "setting": "[3]; brain, 10 mg/kg, LEV 10 mg/kg alone (Co. No. 2 study), read-out: Mean Brain Level (non-combination) LEV", "value": 5770, "unit": "ng/mL"},
      {"measurement": "concentration at 1 h", "setting": "[3]; brain, LEV 10 mg/kg combined with Co. No. 2 3 mg/kg, read-out: Mean Brain Level LEV", "value": 5880, "unit": "ng/mL"},
      {"measurement": "concentration at 1 h", "setting": "[3]; plasma, 10 mg/kg, LEV 10 mg/kg alone (Co. No. 1 study), read-out: Mean Plasma Levels (non-combination) LEV", "value": 8250, "unit": "ng/mL"},
      {"measurement": "concentration at 1 h", "setting": "[3]; plasma, 10 mg/kg, LEV 10 mg/kg alone (Co. No. 2 study), read-out: Mean Plasma Level (non-combination) LEV", "value": 8750, "unit": "ng/mL"},
      {"measurement": "concentration at 1 h", "setting": "[3]; plasma, LEV 10 mg/kg combined with Co. No. 1 2.5 mg/kg, 6 Hz 44 mA, read-out: Plasma (ng/ml) LEV, individual mice", "value": 10300, "unit": "ng/mL"},
      {"measurement": "concentration at 1 h", "setting": "[3]; plasma, LEV 10 mg/kg combined with Co. No. 1 2.5 mg/kg, read-out: Mean Plasma Level LEV", "value": 10300, "unit": "ng/mL"},
      {"measurement": "concentration at 1 h", "setting": "[3]; plasma, LEV 10 mg/kg combined with Co. No. 2 3 mg/kg, read-out: Mean Plasma Level LEV", "value": 5510, "unit": "ng/mL"}
    ]}
  ]
}
